Laboratory results: article PMC10609883, “Design, Synthesis and Biological Evaluation of Novel N-Arylpiperazines Containing a 4,5-Dihydrothiazole Ring” (Pharmaceuticals, 2023)
“And” between values parts separate entries of the source, which are not always exact repeats. Equal entries are not always repeated.

What was measured:
[1] = tested on: PC-3; experiment: Cytotoxic activity, sulforhodamine B assay, PC-3; format: cell-based; conditions: Homo sapiens, PC-3 prostate cancer cells, 72 h
Method: (§1) Media, serum and antibiotics for cell culture were from Lonza (Basel, Switzerland). MCF7 (ER+, PR+, HER2−), SKBR3 (ER−, […], HER2+) and MDA-MB231 (ER−, PR−, HER2−) human breast cancer cells; MCF10A non-cancer breast epithelial cells; LNCAP (androgen sensitive), DU145 and PC3 (androgen independent) human prostate cancer cells; and PNT1 non-cancer prostate epithelial cells were available in our laboratory. MCF7, SKBR3 and MDA-MB231 cells were cultured in DMEM, supplemented with 10% FBS, 2 mM glutamine, 100 units/mL penicillin and 100 units/mL streptomycin. MCF10A cells were cultured in MEBM and supplemented with 0.4% BPE, 0.1% hEGF, 0.1%, Insulin, 0.1% Hydrocortisone and 0.1% GA-1000. LNCAP and DU145 cells were cultured in RPMI and supplemented with 10% FBS, 2 mM glutamine, 100 units/mL penicillin and 100 units/mL streptomycin. PC3 and PNT1 cells were cultured in DMEM-F12 (1:1), supplemented with 10% FBS, 2 mM glutamine, 100 units/mL penicillin and 100 units/mL streptomycin. Cultures were maintained in a humidified atmosphere of 95% air and 5% CO2 at 37 °C. Treatment with compounds were carried out in culture conditions. For cell survival assay, cells were fixed with 50% trichloroacetic acid for at least 2 h at 4 °C, washed with distilled and de-ionized water, air-dried and stained for 30 min with 0.4% sulforhodamine B in 1% acetic acid. Unbound dye was removed, and 10 mM tris-HCl solution (pH 7.5) was added to dissolve the protein-bound dye. Cell survival was assessed by optical density determination at 510 nm using a microplate reader.
(§2) Figure 1 Effect of novel thiazolinylphenyl-piperazines (2a–c) on PCa cell viability. LNCAP, DU145 and PC3 cells were treated with rising concentrations (5 μM, 10 μM, 25 μM, 50 μM, 100 μM) of 2a–c. After 72 h, cell viability was assessed by sulforhodamine B assay. […]
Figure 3 Effect of novel thiazolinylphenyl-piperazines (3a–c) on PC3 and MDA cell viability. […] After 72 h, cell viability was assessed by sulforhodamine B assay. […]

[2] = tested on: MDA-MB231; experiment: Cytotoxic activity, sulforhodamine B assay, MDA-MB231; format: cell-based; conditions: Homo sapiens, MDA-MB-231, MDA-MB231 breast cancer cells, 72 h
Method: as §1
(§3) Figure 2 Effect of novel thiazolinylphenyl-piperazines (2a–c) on BCa cell viability. MCF7, SKBR3 and MDA cells were treated with rising concentrations (5 μM, 10 μM, 25 μM, 50 μM, 100 μM) of 2a–c. After 72 h, cell viability was assessed by sulforhodamine B assay. The results were reported as percentage of viable cells compared to positive control (untreated cells that were considered to represent the maximum viability of 100%). Data represent the mean ± SD of at least three independent triplicate experiments. * denotes statistically significant values compared with positive control (* adjp < 0.05, ** adjp < 0.01, *** adjp < 0.001).
as §3, with “Figure 3” for “Figure 2”, “thiazolinylphenyl-piperazines (3a–c)” for “thiazolinylphenyl-piperazines (2a–c)”, “on PC3 and MDA” for “on BCa”, “viability. Cells” for “viability. MCF7, SKBR3 and MDA cells”, “of 3a-c.” for “of 2a–c.”, “< 0.001, **** adjp < 0.0001).” for “< 0.001).”

[3] = tested on: LNCAP; experiment: Cytotoxic activity, sulforhodamine B assay, LNCAP; format: cell-based, human; conditions: 72 h, LNCAP prostate cancer cells
Method: as §1
as §3, with “Figure 1” for “Figure 2”, “on PCa” for “on BCa”, “viability. LNCAP, DU145” for “viability. MCF7, SKBR3”, “and PC3” for “and MDA”, “< 0.01).” for “< 0.01, *** adjp < 0.001).”

[4] = tested on: MCF-7; experiment: Cytotoxic activity, sulforhodamine B assay, MCF-7; format: cell-based; conditions: Homo sapiens, MCF7, MCF-7 breast cancer cells, 72 h
Method: as §1
as §3, with “Data represent the mean ± SD of at least three independent triplicate experiments. * denotes statistically significant values compared with positive control (* adjp < 0.05, ** adjp < 0.01, *** adjp < 0.001).” left out

[5] = target: T1, 5-HT1A receptor (Rattus norvegicus, UniProt P19327); experiment: Competitive 5-HT1A binding assay, [3H]8-OH-DPAT, hippocampal membranes; set-up: species or system Sprague Dawley rats; conditions: 5-HT1A receptor binding affinity; 1 nM [3H]8-OH-DPAT, hippocampal membrane; Cheng–Prusoff; read-out: Ki (µM, 95% CI)
T1 construct: supplemented with 0.1% ascorbate, 5 mM MgCl2 and 80 µg of hippocampal membrane suspension; from tissue; host or cells: rat hippocampus membranes (Sprague Dawley)
T1 sequence (P19327 1-422): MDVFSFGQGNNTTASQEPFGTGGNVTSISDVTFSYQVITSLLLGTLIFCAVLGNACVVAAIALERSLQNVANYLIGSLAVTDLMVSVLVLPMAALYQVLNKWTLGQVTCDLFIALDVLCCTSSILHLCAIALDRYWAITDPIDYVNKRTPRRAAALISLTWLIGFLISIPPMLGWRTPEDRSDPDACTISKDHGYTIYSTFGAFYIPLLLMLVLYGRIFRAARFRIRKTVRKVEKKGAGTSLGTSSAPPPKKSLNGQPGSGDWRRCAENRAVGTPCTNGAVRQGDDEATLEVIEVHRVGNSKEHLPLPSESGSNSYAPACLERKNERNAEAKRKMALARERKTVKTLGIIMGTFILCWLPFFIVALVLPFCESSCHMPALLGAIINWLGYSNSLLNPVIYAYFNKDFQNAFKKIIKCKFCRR
Method: Brains were rapidly removed and placed on ice. Hippocampi (for 5-HT1A assays) and frontal cortices (for 5-HT2A assays) were dissected on a Petri dish. […] The homogenate was centrifuged at 48,000× g at 4 °C for 15 min. […] The centrifugation and suspension steps were repeated twice.
Non-specific binding was determined with 10 μM serotonin. The final DMSO concentration in the assay was 5%. […] Each well was washed with 2 mL of 50 mM Tris-HCl (pH 7.4) buffer to separate bound ligands from free ones. Plates were left to dry overnight. […] Binding curves were fitted with one site non-linear regression.

[6] = tested on: SKBR-3; experiment: Cytotoxic activity, sulforhodamine B assay, SKBR-3; format: cell-based; conditions: Homo sapiens, SK-BR-3, SKBR-3 breast cancer cells, 72 h
Method: as §1
as §3, with “Data represent the mean ± SD of at least three independent triplicate experiments. * denotes statistically significant values compared with positive control (* adjp < 0.05, ** adjp < 0.01, *** adjp < 0.001).” left out

[7] = tested on: DU-145; experiment: Cytotoxic activity, sulforhodamine B assay, DU-145; format: cell-based; conditions: Homo sapiens, DU-145 prostate cancer cells, 72 h
Method: as §1
as §2, with “assay. The results were reported as percentage of viable cells compared to positive control (untreated cells that were considered to represent the maximum viability of 100%).” for “assay.”

CC(=O)N1CCN(c2ccc(C3=NCCS3)cc2)CC1 [3c, 1-(4-(4-(4,5-Dihydrothiazol-2-yl)phenyl)piperazin-1-yl)ethan-1-one]
IC50 [1]: 32.1 ± 10.2 µM
IC50 [2]: 47.1 ± 6.7 µM

c1ccc(N2CCNCC2)c(C2=NCCS2)c1 [2a, 2-(2-(Piperazin-1-yl)phenyl)-4,5-dihydrothiazole]
IC50 ([3]; Homo sapiens, LNCaP): 67.2 ± 13.1 µM
IC50 [4]: 14.7 ± 1.9 µM
Ki [5]: 2.29 µM and 2.3 µM
IC50 [2]: 31.4 ± 5.1 µM
IC50 [6]: 28.2 ± 4.1 µM
IC50 [7]: 66.6 ± 7.3 µM

CC(=O)N1CCN(c2cccc(C3=NCCS3)c2)CC1 [3b, 1-(4-(3-(4,5-Dihydrothiazol-2-yl)phenyl)piperazin-1-yl)ethan-1-one]
IC50 [1]: 65 ± 7.4 µM
IC50 [2]: 34.6 ± 5.4 µM

c1cc(N2CCNCC2)ccc1C1=NCCS1 [2c, 2-(4-(Piperazin-1-yl)phenyl)-4,5-dihydrothiazole]
IC50 ([3]; Homo sapiens, LNCaP): 32 µM
IC50 [3]: 31.9 ± 9.2 µM
IC50 [4]: 19.5 ± 2.3 µM
Ki [5]: 49.5 µM
IC50 [2]: 36.3 ± 7.7 µM
IC50 [6]: 27.7 ± 4.8 µM
IC50 [7]: 47.7 ± 11.7 µM

CC(=O)N1CCN(c2ccccc2C2=NCCS2)CC1 [3a, 1-(4-(2-(4,5-Dihydrothiazol-2-yl)phenyl)piperazin-1-yl)ethan-1-one]
melting point: 90 to 92 °C
IC50 [1]: 73.3 ± 10.3 µM
IC50 [2]: 23.3 ± 3.4 µM

c1cc(C2=NCCS2)cc(N2CCNCC2)c1 [2b, 2-(3-(Piperazin-1-yl)phenyl)-4,5-dihydrothiazole]
IC50 ([3]; Homo sapiens, LNCaP): 48.5 ± 7.3 µM
IC50 [4]: 15.9 ± 1.8 µM
Ki [5]: 0.412 µM
IC50 [2]: 40 ± 9.8 µM
IC50 [6]: 27.6 ± 5.6 µM
IC50 [7]: 66.6 ± 9.4 µM
